In the kinase profiling compilation of Christmann-Franck et al. (2016):

Tests used:
Assay in all cases: KINOMEscan competition binding
Details in all cases: compound 2.0 µM
PDGFRA (human) = PDGFRA (human) (UniProt P16234)
PRKG1 (human) = PRKG1 (human) (UniProt Q13976)
[1] = tested on: PIK3CA (human), P42336 [C420R]
YSK4 (human) = YSK4 (human) (UniProt Q56UN5)
MAPK4 (human) = MAPK4 (human) (UniProt P31152)
TEK (human) = TEK (human) (UniProt Q02763)
CDKL2 (human) = CDKL2 (human) (UniProt Q92772)
[2] = target: TYK2 JH2 pseudokinase (human) (UniProt P29597)
RET (human) = RET (human) (UniProt P07949)
MAPK15 (human) = MAPK15 (human) (UniProt Q8TD08)
CDK5 (human) = CDK5 (human) (UniProt Q00535)
MAPK6 (human) = MAPK6 (human) (UniProt Q16659)
DCLK3 (human) = DCLK3 (human) (UniProt Q9C098)
CDK15 (human) = CDK15 (human) (UniProt Q96Q40)
[3] = tested on: KIT (human), P10721 [L576P]
PLK4 (human) = PLK4 (human) (UniProt O00444)
CDK11B (human) = CDK11B (human) (UniProt P21127)
DSTYK (human) = DSTYK (human) (UniProt Q6XUX3)
[4] = tested on: EGFR (human), P00533 [L858R]
PAK1 (human) = PAK1 (human) (UniProt Q13153)
PIM1 (human) = PIM1 (human) (UniProt P11309)
MAPKAPK2 (human) = MAPKAPK2 (human) (UniProt P49137)
MUSK (human) = MUSK (human) (UniProt O15146)
MELK (human) = MELK (human) (UniProt Q14680)
CDK18 (human) = CDK18 (human) (UniProt Q07002)
[5] = tested on: FLT3 (human), P36888 [D835H]
STK24 (human) = STK24 (human) (UniProt Q9Y6E0)
PIM3 (human) = PIM3 (human) (UniProt Q86V86)
FRK (human) = FRK (human) (UniProt P42685)
PRKAA2 (human) = PRKAA2 (human) (UniProt P54646)
TNNI3K (human) = TNNI3K (human) (UniProt Q59H18)
TAOK2 (human) = TAOK2 (human) (UniProt Q9UL54)
PRKD2 (human) = PRKD2 (human) (UniProt Q9BZL6)
PRKCH (human) = PRKCH (human) (UniProt P24723)
MAP3K13 (human) = MAP3K13 (human) (UniProt O43283)
LYN (human) = LYN (human) (UniProt P07948)
BLK (human) = BLK (human) (UniProt P51451)
[6] = tested on: PIK3CA (human), P42336 [I800L]
AURKB (human) = AURKB (human) (UniProt Q96GD4)
MARK4 (human) = MARK4 (human) (UniProt Q96L34)
DAPK1 (human) = DAPK1 (human) (UniProt P53355)
[7] = tested on: RET (human), P07949 [V804M]
DCLK1 (human) = DCLK1 (human) (UniProt O15075)
DCLK1 (human), sequence (O15075 whole entry, looked up): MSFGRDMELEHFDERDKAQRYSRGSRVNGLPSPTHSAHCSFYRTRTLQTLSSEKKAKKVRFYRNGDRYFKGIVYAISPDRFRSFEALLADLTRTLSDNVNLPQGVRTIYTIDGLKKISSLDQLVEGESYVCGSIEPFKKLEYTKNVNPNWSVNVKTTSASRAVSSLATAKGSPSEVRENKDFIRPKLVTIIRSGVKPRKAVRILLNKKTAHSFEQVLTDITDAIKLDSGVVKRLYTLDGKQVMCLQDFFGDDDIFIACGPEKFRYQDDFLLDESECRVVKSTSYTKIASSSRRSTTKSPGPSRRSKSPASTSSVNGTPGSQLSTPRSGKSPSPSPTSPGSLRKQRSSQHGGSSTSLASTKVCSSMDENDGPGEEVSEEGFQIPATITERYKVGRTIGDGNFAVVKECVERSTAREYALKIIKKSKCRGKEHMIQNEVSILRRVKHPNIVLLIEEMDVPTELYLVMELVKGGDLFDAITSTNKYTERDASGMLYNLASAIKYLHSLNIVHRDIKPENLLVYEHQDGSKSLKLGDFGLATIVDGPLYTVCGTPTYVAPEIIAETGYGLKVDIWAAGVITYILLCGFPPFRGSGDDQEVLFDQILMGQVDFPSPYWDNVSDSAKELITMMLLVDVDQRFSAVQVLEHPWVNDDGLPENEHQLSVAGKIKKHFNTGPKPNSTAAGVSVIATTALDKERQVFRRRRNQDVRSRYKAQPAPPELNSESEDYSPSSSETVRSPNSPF

AURKB (human), sequence (Q96GD4 whole entry, looked up): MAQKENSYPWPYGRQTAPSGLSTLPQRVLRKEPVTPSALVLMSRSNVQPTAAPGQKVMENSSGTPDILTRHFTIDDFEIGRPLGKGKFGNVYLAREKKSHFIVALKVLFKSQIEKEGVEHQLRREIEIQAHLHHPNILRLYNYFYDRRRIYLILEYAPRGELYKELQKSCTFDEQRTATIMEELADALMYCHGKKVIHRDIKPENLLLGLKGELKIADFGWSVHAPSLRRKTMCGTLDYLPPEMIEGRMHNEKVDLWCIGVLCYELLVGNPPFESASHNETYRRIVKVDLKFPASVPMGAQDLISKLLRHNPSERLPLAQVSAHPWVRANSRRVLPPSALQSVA
CDK18 (human), sequence (Q07002 whole entry, looked up): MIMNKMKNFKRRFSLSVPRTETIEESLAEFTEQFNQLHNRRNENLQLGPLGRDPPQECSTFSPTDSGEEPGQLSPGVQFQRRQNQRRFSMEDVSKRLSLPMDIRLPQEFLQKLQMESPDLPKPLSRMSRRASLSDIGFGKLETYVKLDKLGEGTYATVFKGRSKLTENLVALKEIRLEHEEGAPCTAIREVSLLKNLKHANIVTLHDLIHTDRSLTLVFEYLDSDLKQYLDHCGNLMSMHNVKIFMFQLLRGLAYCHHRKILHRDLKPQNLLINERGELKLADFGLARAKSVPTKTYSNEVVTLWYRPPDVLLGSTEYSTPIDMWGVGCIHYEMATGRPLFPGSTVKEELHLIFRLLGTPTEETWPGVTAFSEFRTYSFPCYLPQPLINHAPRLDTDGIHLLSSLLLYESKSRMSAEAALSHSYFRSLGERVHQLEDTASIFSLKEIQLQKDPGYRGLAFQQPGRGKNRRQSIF
PDGFRA (human), sequence (P16234 whole entry, looked up): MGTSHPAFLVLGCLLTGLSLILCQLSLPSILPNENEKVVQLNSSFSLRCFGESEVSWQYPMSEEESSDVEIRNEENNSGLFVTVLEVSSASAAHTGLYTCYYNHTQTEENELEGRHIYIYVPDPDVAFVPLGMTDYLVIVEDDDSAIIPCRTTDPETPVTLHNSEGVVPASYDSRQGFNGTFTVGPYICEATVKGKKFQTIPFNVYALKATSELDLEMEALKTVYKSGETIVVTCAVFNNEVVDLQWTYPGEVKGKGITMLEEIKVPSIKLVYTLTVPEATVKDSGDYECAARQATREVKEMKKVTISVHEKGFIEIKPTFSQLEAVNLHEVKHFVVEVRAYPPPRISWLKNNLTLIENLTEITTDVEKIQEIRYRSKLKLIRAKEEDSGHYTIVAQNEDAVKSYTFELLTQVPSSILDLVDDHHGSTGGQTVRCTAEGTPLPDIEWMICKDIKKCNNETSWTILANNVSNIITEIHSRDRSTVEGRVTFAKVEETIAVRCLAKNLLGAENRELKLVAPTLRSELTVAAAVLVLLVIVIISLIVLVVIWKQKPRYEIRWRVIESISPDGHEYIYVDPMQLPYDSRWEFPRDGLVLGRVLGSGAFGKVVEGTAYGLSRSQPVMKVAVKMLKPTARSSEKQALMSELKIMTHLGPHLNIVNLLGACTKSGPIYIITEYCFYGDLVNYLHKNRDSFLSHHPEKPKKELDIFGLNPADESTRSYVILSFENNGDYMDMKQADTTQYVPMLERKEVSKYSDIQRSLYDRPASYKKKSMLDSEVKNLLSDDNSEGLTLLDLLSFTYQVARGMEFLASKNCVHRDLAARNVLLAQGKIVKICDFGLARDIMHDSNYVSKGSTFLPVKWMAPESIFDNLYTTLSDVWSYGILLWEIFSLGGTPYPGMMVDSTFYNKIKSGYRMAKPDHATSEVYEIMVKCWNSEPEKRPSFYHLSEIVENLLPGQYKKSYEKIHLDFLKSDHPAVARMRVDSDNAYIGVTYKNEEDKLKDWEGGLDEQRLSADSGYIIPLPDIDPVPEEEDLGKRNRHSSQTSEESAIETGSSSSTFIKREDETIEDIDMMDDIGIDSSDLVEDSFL
DCLK3 (human), sequence (Q9C098 whole entry, looked up): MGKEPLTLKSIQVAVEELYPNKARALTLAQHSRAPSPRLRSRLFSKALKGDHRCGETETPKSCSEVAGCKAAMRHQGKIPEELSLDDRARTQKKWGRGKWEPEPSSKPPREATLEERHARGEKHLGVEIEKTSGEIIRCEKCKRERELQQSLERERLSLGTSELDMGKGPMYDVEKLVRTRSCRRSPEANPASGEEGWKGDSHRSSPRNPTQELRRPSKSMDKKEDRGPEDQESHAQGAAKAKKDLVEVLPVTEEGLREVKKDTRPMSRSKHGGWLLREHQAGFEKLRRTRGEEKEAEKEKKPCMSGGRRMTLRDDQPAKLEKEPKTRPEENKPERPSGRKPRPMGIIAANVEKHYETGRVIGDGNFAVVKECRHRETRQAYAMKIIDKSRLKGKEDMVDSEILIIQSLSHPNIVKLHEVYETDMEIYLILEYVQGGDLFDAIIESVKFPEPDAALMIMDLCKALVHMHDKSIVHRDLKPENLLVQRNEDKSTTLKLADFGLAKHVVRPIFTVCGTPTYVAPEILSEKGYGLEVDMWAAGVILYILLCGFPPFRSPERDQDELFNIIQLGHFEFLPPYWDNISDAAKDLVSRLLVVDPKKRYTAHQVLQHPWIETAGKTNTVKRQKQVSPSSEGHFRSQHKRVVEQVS
MUSK (human), sequence (O15146 whole entry, looked up): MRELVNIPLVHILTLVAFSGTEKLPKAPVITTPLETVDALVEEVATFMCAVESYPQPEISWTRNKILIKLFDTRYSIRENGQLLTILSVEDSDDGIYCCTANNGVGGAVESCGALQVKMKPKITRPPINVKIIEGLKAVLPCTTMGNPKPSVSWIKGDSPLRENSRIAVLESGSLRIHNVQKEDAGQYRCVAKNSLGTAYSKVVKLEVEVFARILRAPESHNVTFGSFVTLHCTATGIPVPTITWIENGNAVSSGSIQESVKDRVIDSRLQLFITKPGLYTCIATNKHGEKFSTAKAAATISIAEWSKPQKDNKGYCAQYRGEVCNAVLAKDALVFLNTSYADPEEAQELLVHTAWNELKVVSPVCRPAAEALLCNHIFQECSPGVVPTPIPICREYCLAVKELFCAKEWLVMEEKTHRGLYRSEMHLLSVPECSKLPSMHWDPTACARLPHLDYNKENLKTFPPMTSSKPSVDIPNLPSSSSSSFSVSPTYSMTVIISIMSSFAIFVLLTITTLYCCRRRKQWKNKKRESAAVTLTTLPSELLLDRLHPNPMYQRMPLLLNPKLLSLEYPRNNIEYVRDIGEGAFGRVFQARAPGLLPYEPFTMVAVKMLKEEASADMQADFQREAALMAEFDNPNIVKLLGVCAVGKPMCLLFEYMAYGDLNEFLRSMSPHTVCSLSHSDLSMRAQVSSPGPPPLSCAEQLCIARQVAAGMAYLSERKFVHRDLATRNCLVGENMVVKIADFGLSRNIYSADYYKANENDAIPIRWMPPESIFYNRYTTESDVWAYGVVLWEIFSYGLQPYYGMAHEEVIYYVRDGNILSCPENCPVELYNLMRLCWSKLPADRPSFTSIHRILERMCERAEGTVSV
MELK (human), sequence (Q14680 whole entry, looked up): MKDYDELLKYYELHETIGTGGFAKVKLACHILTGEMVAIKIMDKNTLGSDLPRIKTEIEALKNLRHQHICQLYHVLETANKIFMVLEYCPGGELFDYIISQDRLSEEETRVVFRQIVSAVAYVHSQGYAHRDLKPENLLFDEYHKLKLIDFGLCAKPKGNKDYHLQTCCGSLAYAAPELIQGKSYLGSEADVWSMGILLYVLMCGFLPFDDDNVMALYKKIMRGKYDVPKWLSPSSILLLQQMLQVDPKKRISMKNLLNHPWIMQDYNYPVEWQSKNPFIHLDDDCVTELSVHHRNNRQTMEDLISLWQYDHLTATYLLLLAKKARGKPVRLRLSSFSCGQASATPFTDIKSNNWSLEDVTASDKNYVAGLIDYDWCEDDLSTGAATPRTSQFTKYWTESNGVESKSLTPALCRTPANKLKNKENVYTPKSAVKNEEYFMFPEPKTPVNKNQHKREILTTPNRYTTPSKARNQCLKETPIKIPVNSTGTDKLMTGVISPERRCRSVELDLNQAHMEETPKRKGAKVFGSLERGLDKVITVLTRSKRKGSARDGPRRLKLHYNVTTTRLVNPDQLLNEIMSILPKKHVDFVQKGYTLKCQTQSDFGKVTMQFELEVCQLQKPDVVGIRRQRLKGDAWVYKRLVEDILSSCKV

With N#Cc1ccc2ncnc(NCCc3ccc4ccccc4c3)c2c1 the kinase still bound, per cent of control (PDGFRA (human)) was 92%, the kinase still bound, per cent of control (PRKG1 (human)) was 85% and the kinase still bound, per cent of control [1] was 100%. It also gave a kinase still bound, per cent of control (YSK4 (human)) of 86%, a kinase still bound, per cent of control (MAPK4 (human)) of 87% and a kinase still bound, per cent of control (TEK (human)) of 100%. The kinase still bound, per cent of control (CDKL2 (human)) was 71%, the kinase still bound, per cent of control [2] was 92% and the kinase still bound, per cent of control (RET (human)) was 90%. The kinase still bound, per cent of control (MAPK15 (human)) was 84%, the kinase still bound, per cent of control (CDK5 (human)) was 100% and the kinase still bound, per cent of control (MAPK6 (human)) was 91%. The kinase still bound, per cent of control (DCLK3 (human)) was 99%, the kinase still bound, per cent of control (CDK15 (human)) was 100% and the kinase still bound, per cent of control [3] was 86%. It also gave a kinase still bound, per cent of control (PLK4 (human)) of 100%, a kinase still bound, per cent of control (CDK11B (human)) of 99% and a kinase still bound, per cent of control (DSTYK (human)) of 61%. The kinase still bound, per cent of control [4] was 96%, the kinase still bound, per cent of control (PAK1 (human)) was 82% and the kinase still bound, per cent of control (PIM1 (human)) was 95%. For the same compound, the kinase still bound, per cent of control (MAPKAPK2 (human)) was 100%, the kinase still bound, per cent of control (MUSK (human)) was 100% and the kinase still bound, per cent of control (MELK (human)) was 84%. The kinase still bound, per cent of control (CDK18 (human)) was 97%, the kinase still bound, per cent of control [5] was 98% and the kinase still bound, per cent of control (STK24 (human)) was 92%. For the same compound, the kinase still bound, per cent of control (PIM3 (human)) was 100%, the kinase still bound, per cent of control (FRK (human)) was 100% and the kinase still bound, per cent of control (PRKAA2 (human)) was 80%. The kinase still bound, per cent of control (TNNI3K (human)) was 100%, the kinase still bound, per cent of control (TAOK2 (human)) was 83% and the kinase still bound, per cent of control (PRKD2 (human)) was 73%. The kinase still bound, per cent of control (PRKCH (human)) was 100%, the kinase still bound, per cent of control (MAP3K13 (human)) was 100% and the kinase still bound, per cent of control (LYN (human)) was 99%. It also gave a kinase still bound, per cent of control (BLK (human)) of 65%, a kinase still bound, per cent of control [6] of 85% and a kinase still bound, per cent of control (AURKB (human)) of 79%. For the same compound, the kinase still bound, per cent of control (MARK4 (human)) was 85%, the kinase still bound, per cent of control (DAPK1 (human)) was 89% and the kinase still bound, per cent of control [7] was 100%. For the same compound, the kinase still bound, per cent of control (DCLK1 (human)) was 89%.
